*1 amine or outer side, *2 acyl side, *3 side chain or, on linkers, in order; H or OH if unused. Where a SMILES comes first, the peptide text is derived from it. The star is where a group is joined. pNA = O=[N+]([O-])c1ccc(N*)cc1; Suc = O=C(CCC(=O)[*:2])[*:1]; Bz = O=C(c1ccccc1)*
Legend:
Assay in all cases: Kinetic parameters from progress curves, p-nitroanilide substrates
Type in all cases: biochemical
Details in all cases: 25° C., 0.1M tris buffer, pH 8.6
[1] = target: T1, B. amyloliquefaciens subtilisin variant asn+166 (glycine+166 to asn) (Bacillus amyloliquefaciens, UniProt P00782, G273N)
T1 construct: codons for the mature subtilisin corresponding to that secreted by the B. amyloliquefaciens; made in house; host or cells: B. subtilis BG2036
Protocol: (§1) B. subtilis strain BG2036 obtained by the method of Example 11 was transformed by the plasmids of Examples 14, 15 or 20 and by pS4-5 as a control. Transformants were plated or cultured in shaker flasks for 16 to 48 h at 37° C. in LB media plus 12.5 μg/ml chloramphenicol. Mutant enzymatically active subtilisin was recovered by dialyzing cell broth against 0.01M sodium phosphate buffer, pH 6.2. The dialyzed broth was then titrated to pH 6.2 with 1N HCl and loaded on a 2.5×2 cm column of CM Cellulose (CM-52 Whatman). After washing with 0.01M sodium phosphate, pH 6.2, the subtilisins (except mutants at position +222) were eluted with the same buffer made 0.08N in NaCl. The mutant subtilisins at position +222 were each eluted with 0.1M sodium phosphate, pH 7.0. The purified mutant and wild type enzymes were then used in studies of oxidation stability, Km, Kcat, Kcat/Km ratio, pH optimum, and changes in substrate specificity.
(§2) Various mutants for glycine+166 were screened for modified Kcat, Km and Kcat/Km ratios. Kinetic parameters were obtained by analysis of the progress curves of the reactions. The rate of reaction was measured as a function of substrate concentration. Data was analyzed by fitting to the Michaelis-Menton equation using the non-linear regression algorithm of Marquardt (Marquardt, D. W. 1963, "J. Soc. Ind. Appl. Math." 11, 431-41).

[2] = target: T2, B. amyloliquefaciens subtilisin, wild type (gly-166) (Bacillus amyloliquefaciens, UniProt P00782)
T2 construct: codons for the mature subtilisin corresponding to that secreted by the B. amyloliquefaciens; made in house; host or cells: B. subtilis BG2036 (transformed with pS4-5)
Protocol: as §1, §2

[3] = target: T3, B. amyloliquefaciens subtilisin variant glu+166 (E166; glycine+166 to glu) (Bacillus amyloliquefaciens, UniProt P00782, G273E)
T3 construct: codons for the mature subtilisin corresponding to that secreted by the B. amyloliquefaciens; made in house; host or cells: B. subtilis BG2036
Protocol: as §1, §2

[4] = target: T4, B. amyloliquefaciens subtilisin variant asp+166 (D166; glycine+166 to asp) (Bacillus amyloliquefaciens, UniProt P00782, G273D)
T4 construct: codons for the mature subtilisin corresponding to that secreted by the B. amyloliquefaciens; made in house; host or cells: B. subtilis BG2036
Protocol: as §1, §2

[5] = target: T5, B. amyloliquefaciens subtilisin variant lys+166 (glycine+166 to lys) (Bacillus amyloliquefaciens, UniProt P00782, G273K)
T5 construct: codons for the mature subtilisin corresponding to that secreted by the B. amyloliquefaciens; made in house; host or cells: B. subtilis BG2036
Protocol: as §1, §2

[6] = target: T6, B. amyloliquefaciens subtilisin variant ala+166 (A166; glycine+166 to ala) (Bacillus amyloliquefaciens, UniProt P00782, G273A)
T6 construct: codons for the mature subtilisin corresponding to that secreted by the B. amyloliquefaciens; made in house; host or cells: B. subtilis BG2036
Protocol: as §1, §2

[7] = target: T7, B. amyloliquefaciens subtilisin variant hys+166 (glycine+166 to his) (Bacillus amyloliquefaciens, UniProt P00782, G273H)
T7 construct: codons for the mature subtilisin corresponding to that secreted by the B. amyloliquefaciens; made in house; host or cells: B. subtilis BG2036
Protocol: as §1, §2

[8] = target: T8, B. amyloliquefaciens subtilisin variant phe+166 (glycine+166 to phe) (Bacillus amyloliquefaciens, UniProt P00782, G273F)
T8 construct: codons for the mature subtilisin corresponding to that secreted by the B. amyloliquefaciens; made in house; host or cells: B. subtilis BG2036
Protocol: as §1, §2

[9] = target: T9, B. amyloliquefaciens subtilisin variant arg+166 (glycine+166 to arg) (Bacillus amyloliquefaciens, UniProt P00782, G273R)
T9 construct: codons for the mature subtilisin corresponding to that secreted by the B. amyloliquefaciens; made in house; host or cells: B. subtilis BG2036
Protocol: as §1, §2

T3 sequence (P00782 108-382 G273E): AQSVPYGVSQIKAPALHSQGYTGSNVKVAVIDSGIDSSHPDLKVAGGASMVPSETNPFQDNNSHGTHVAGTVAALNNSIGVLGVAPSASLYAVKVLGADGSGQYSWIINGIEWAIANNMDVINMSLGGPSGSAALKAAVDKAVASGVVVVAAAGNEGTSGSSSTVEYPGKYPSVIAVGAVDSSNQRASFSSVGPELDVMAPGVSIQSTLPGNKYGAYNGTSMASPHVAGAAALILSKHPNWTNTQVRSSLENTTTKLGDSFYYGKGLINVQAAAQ
T4 sequence (P00782 108-382 G273D): as the sequence (P00782 108-382 G273E) above, with E166D counted along it
T2 sequence (P00782 108-382): as the sequence (P00782 108-382 G273E) above, with E166G counted along it
T8 sequence (P00782 108-382 G273F): as the sequence (P00782 108-382 G273E) above, with E166F counted along it
T1 sequence (P00782 108-382 G273N): as the sequence (P00782 108-382 G273E) above, with E166N counted along it
T9 sequence (P00782 108-382 G273R): as the sequence (P00782 108-382 G273E) above, with E166R counted along it
T7 sequence (P00782 108-382 G273H): as the sequence (P00782 108-382 G273E) above, with E166H counted along it
T6 sequence (P00782 108-382 G273A): as the sequence (P00782 108-382 G273E) above, with E166A counted along it
T5 sequence (P00782 108-382 G273K): as the sequence (P00782 108-382 G273E) above, with E166K counted along it

| Structure (SMILES) | Km [1] [µM] | Km [2] [µM] | Kcat [3] [s⁻¹] | Km [3] [µM] | Kcat [4] [s⁻¹] | Km [4] [µM] | Km [5] [µM] | Km [6] [µM] | Km [7] [µM] | Kcat [8] [s⁻¹] | Km [8] [µM] | Km [9] [µM] |
| --- | --- | --- | --- | --- | --- | --- | --- | --- | --- | --- | --- | --- |
| CC(C)[C@H](NC(=O)c1ccccc1)C(=O)NCC(=O)N[C@@H](CCCNC(=N)N)C(=O)Nc1ccc([N+](=O)[O-])cc1 [BVGRpN, benzoyl-L-Valyl-Glycyl-L-Arginyl-p-nitroanilide] (Bz-Val-Gly-Arg-pNA) | 120 | 1100 | 2 | 27 | 2 | 41 | – | – | – | – | – | – |
| C[C@H](NC(=O)CCC(=O)O)C(=O)N[C@@H](C)C(=O)N1CCC[C@H]1C(=O)N[C@@H](Cc1ccccc1)C(=O)Nc1ccc([N+](=O)[O-])cc1 [sAAPFpN, succinyl-L-Alanyl-L-Alanyl-L-Prolyl-L-Phenylalanyl-p-nitro-anilide] (Suc-AAPF-pNA) | 140 | 140 | – | 340 | – | 580 | 34 | 27 | 110 | 3 | 14 | 62 |

— US5310675A, “Procaryotic carbonyl hydrolases” (priority 1991, dated 1994)
